The nature of the data set: LCMS and standard curve analysis of the concentration of each active ingredient in solution. In kind it is physicochemical. The conditions noted are these: three samples of solutions containing the three active ingredients; LCMS, standard curve. Here is the method:
Separate stock solutions of moxifloxacin HCI, dexamethasone, and sodium bromfenac were used as standards. Three different samples of solutions containing the three active ingredients, i.e., moxifloxacin HCI, dexamethasone, and sodium bromfenac were analyzed for the concentration of moxifloxacin in solution, the concentration of dexamethasone in solution, and the concentration of sodium bromfenac in solution.

Structures can show the parent of a compound that is named as a salt.

In the case of `Nc1c(CC(=O)O)cccc1C(=O)c1ccc(Br)cc1` [bromfenac sodium], the “Concentration in Solution” value worked out at 40.5 µg/mL.

`COc1c(N2C[C@@H]3CCCN[C@@H]3C2)c(F)cc2c(=O)c(C(=O)O)cn(C3CC3)c12` [moxifloxacin HCI, moxifloxacin hydrochloride]: the “Concentration in Solution” value came to 5458 µg/mL.

Source of the values: US12364703B2, “Homogeneous ophthalmic composition” (priority 2015, dated 2025).
